The text below walks through data of PubChem BioAssay AID1508610 (The Scripps Research Institute Molecular Screening Center, 2020).

The assay addresses G-protein coupled receptor 151 (Homo sapiens) (UniProt Q8TDV0). Nature of the assay: GPR151 activator potency, dose response, cell-based (AID 1508610). Particulars: cell-based GPR151 activation reporter.

Active and inactive are the calls of the source. How the calls were made is not given here.

G-protein coupled receptor 151 (Homo sapiens), sequence (Q8TDV0 whole entry, looked up): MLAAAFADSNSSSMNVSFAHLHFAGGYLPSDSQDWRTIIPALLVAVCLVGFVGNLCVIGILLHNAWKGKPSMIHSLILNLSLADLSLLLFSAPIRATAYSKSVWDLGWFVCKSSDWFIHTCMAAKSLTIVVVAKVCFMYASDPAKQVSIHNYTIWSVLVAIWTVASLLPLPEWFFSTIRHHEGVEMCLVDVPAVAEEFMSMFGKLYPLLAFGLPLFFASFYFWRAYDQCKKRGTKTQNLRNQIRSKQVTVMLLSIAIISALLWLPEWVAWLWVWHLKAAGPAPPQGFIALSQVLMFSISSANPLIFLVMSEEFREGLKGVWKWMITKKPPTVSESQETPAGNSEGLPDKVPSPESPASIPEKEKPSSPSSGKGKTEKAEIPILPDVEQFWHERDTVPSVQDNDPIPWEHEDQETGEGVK

Broadly, the EC50 is the concentration giving half of the maximal effect. As to `CCCNC(=O)c1ccc(-c2ccc(N3CCOCC3)nc2)s1`, the EC50 is > 28.1 µM (inactive).

For the molecule `CCOC(=O)c1c(C)c(C(=O)NCCC(C)C)c(C)n1C`, the EC50 is > 28 µM (inactive).

As to `c1ccc(Oc2nc(NC3CC3)c3ncn(-c4ccsc4)c3n2)cc1`, the EC50 result is “inactive”.

As for `O=C(N1CCN(Cc2ccccc2)CC1)C(Cl)(Cl)Cl`, the EC50 was > 28 µM (inactive).

As to `O=C(CCn1nc(-c2ccccc2)c2ccccc2c1=O)NCc1ccccc1`, the EC50 is > 28 µM (inactive).

On to `COc1ccc(-c2nc(Nc3ccccc3F)c3ccccc3n2)cc1OC`, for which the EC50 is > 28.2 µM (inactive).

For the molecule `CC1CCCC(NCc2c(C(=O)O)n(Cc3ccccc3F)c3ccccc23)C1C` (stereo unspecified), the EC50 is > 28 µM (inactive).

As for `Cc1nn(Cc2ccc(F)cc2)c(C)c1N`, the EC50 was > 28 µM (inactive).

In the case of `Cc1csc2ncc(C(=O)N3CCc4ccccc43)c(=O)n12`, the EC50 is > 28 µM (inactive).

Regarding `COC(=O)C(NC(=O)c1ccc(Br)cc1)c1ccccc1` (stereo unspecified), the EC50 was > 28 µM (inactive).

Consider `CC(=O)c1ccc(OC(=O)c2cccc(Br)c2)cc1`, for which the EC50 was > 25.9 µM (inactive).

With `Cn1c(N)c(S(=O)(=O)N2CCN(c3ccccc3Cl)CC2)c(=O)n(C)c1=O`, the EC50 was > 28.4 µM (inactive).

Consider `O=C(Nc1ncc([N+](=O)[O-])s1)c1ccc(Br)cc1F`, for which the EC50 was > 27.5 µM (inactive).

Regarding `Cc1ccc(-c2c(Nc3ccc(Cl)cc3)c(=O)c2=O)cc1`, the EC50 was > 28 µM (inactive).

As to `Cc1ccc(/C=N/NC(=O)Cc2cccn2C)s1`, the EC50 is > 28 µM (inactive).

With `COc1cccc(-c2nnc3n2N=C(c2cccc([N+](=O)[O-])c2)CS3)c1`, the EC50 was > 28 µM (inactive).

As for `Cn1cc(CCC(=O)NC2CCN(Cc3ccccc3)CC2)c2ccccc21`, the EC50 was > 28 µM (inactive).

In the case of `O=C(O)C1CCCN(c2ncnc3scc(-c4ccccc4)c23)C1` (stereo unspecified), the EC50 was > 29.7 µM (inactive).

Turning to `COc1ccccc1Cn1c(=S)[nH]c2cc(C(=O)N3CCC(C(N)=O)(N4CCCCC4)CC3)ccc2c1=O`, the EC50 entry was “inactive”.

In the case of `O=C1CCN(C(=O)c2ccc(-c3nc4ccccc4s3)s2)CC1`, the EC50 is > 29.5 µM (inactive).

As for `CC(C)NC(=O)CSc1nnc(-c2cccnc2)n1CCc1ccccc1`, the EC50 was > 28 µM (inactive).

Regarding `COC(=O)c1cccc(NC(=O)c2cccc(Br)c2)c1C`, the EC50 is > 28 µM (inactive).

On to `Cc1ccc(CCNS(=O)(=O)c2ccc3c(c2)OCCN3C)cc1`, for which the EC50 was > 28 µM (inactive).

With `COc1ccc(C(=O)Nc2nc(C)cs2)c(OC)n1`, the EC50 is > 28 µM (inactive).

Take `O=C1CS/C(=C\c2nc3ccccc3s2)N1`: the EC50 was > 31.6 µM (inactive).

Consider `NN1C(=O)c2ccccc2NC1C1CC=CCC1` (stereo unspecified), for which the EC50 was > 28 µM (inactive).

Consider `COc1ccc(-n2nc3c(c2NC(=O)c2c(F)cccc2F)CS(=O)(=O)C3)cc1`, for which the EC50 was > 31.2 µM (inactive).

Turning to `O=C1CC(C(=O)N2CCCC(c3[nH]ncc3-c3ccccc3)C2)c2ccccc21` (stereo unspecified), the EC50 was > 28 µM (inactive).

In the case of `CCOc1ccccc1CN1CCN(Cc2cccc(OC)c2)CC1CCO` (stereo unspecified), the EC50 is > 28 µM (inactive).

Turning to `COc1cc(Nc2cc(-c3ccc(C(N)=O)cc3)nc(N)n2)cc(OC)c1OC`, the EC50 is > 25.6 µM (inactive).

`Cc1ccc(-c2nc3ccccc3[nH]2)cc1`: the EC50 was > 35.1 µM (inactive).

Regarding `CC(C)c1ccc2oc3nc(N)c(C(=O)O)cc3c(=O)c2c1`, the EC50 is > 28 µM (inactive).

In the case of `CCC(=O)Oc1ccc2cc(-c3ccc(OC)c(OC)c3)c(=O)oc2c1`, the EC50 was > 28.5 µM (inactive).

Regarding `Cc1ccc(-c2nc(-c3ccccn3)no2)cc1Cl`, the EC50 was > 35 µM (inactive).

Regarding `CCOc1ccc(NC(=O)C(=O)NCCN2CCN(S(=O)(=O)c3ccc4ccccc4c3)CC2)cc1`, the EC50 is > 18.8 µM (inactive).

As for `CCNc1nc(OC(C(F)(F)F)C(F)(F)F)nc(N2CCCCC2)n1`, the EC50 was > 28 µM (inactive).

On to `Cc1ccc(/C(=N/NC(=O)Cc2ccccc2)C23CN4CN(CN(C4)C2)C3)cc1`, for which the EC50 is > 28 µM (inactive).

As to `CCOC(=O)c1sc(NC(=O)C2CC2)nc1C`, the EC50 is > 28.6 µM (inactive).

Consider `CCC(C(=O)OC)n1cnc2scc(-c3cccc([N+](=O)[O-])c3)c2c1=O` (stereo unspecified), for which the EC50 is > 28 µM (inactive).

Regarding `CCOc1ccc(-n2c(SCC(=O)Nc3ccccc3CC)nc3n[nH]c(C)c3c2=N)cc1`, the EC50 is > 27.1 µM (inactive).

As to `COc1cc(S(=O)(=O)N2CCN(c3ccc(C)c(C)c3)CC2)ccc1F`, the EC50 is > 28 µM (inactive).

As to `CCCCCCCCCCCCCC/C(C(=O)O)=C(\C)C(=O)O`, the EC50 is > 28 µM (inactive).

Take `Cc1ccn2cc(-c3ccc(F)cc3)nc2c1`: the EC50 is > 30.9 µM (inactive).

On to `CCCCN(CCNC(=O)Cn1ncc2c1-c1cc(C)ccc1OC2)Cc1ccco1`, for which the EC50 was > 28 µM (inactive).

As to `O=C(Nc1cc(C(F)(F)F)ccc1F)C1CCCC1`, the EC50 was > 28 µM (inactive).

`Cn1c(=O)oc2cc(S(=O)(=O)N3CCCC(C(=O)N4CCOCC4)C3)ccc21` (stereo unspecified): the EC50 is > 28 µM (inactive).

Regarding `CC(=O)c1c(C)[nH]c(C(=O)N2CCN(c3ccccc3)CC2)c1C`, the EC50 was > 28 µM (inactive).

As for `O=C(O)c1cc(N=Cc2ccco2)ccc1O`, the EC50 is > 28 µM (inactive).

Turning to `COc1ccc(Br)cc1C(=O)NCC1COc2ccccc2O1` (stereo unspecified), the EC50 was > 28 µM (inactive).

In the case of `CCCCCCCC(=O)N/N=C/c1ccccc1OC`, the EC50 was > 28 µM (inactive).

Take `Cc1ccc(NC(=O)/C(=C/c2cccc([N+](=O)[O-])c2)NC(=O)c2cccs2)c(Br)c1`: the EC50 is > 18.7 µM (inactive).

Consider `O=C(Cn1c2c(c(-c3ccccc3Cl)cc1=O)CCC2)NC1CCCC1`, for which the EC50 was > 28 µM (inactive).

For the molecule `O=C(Nc1nc2ccccc2[nH]1)c1ccccc1Cl`, the EC50 was > 28.9 µM (inactive).

With `Cc1ccc(Oc2nc3ccccn3c(=O)c2/C=C(\C#N)C(N)=O)c(C)c1`, the EC50 was > 28 µM (inactive).

For the molecule `CCOc1cc(OCC)cc(C(=O)Nc2ccc(Br)cn2)c1`, the EC50 was > 28 µM (inactive).

Regarding `Cc1ccc2c(c1)N(CC(=O)Nc1ccc(Cl)cc1)C(=O)C(C)O2` (stereo unspecified), the EC50 was > 28 µM (inactive).

As to `Cc1nn(-c2ccc(Nc3ccc(NC(=O)c4cccc(F)c4)cc3)nn2)c(C)c1C`, the EC50 result was “inactive”.

With `CC(C)CC(NC(=O)C(C)NC(=O)CNC(=O)C(NC=O)C(C)C)C(=O)NC(C)C(=O)NC(C(=O)NC(C(=O)NC(C(=O)NC(Cc1c[nH]c2ccccc12)C(=O)NC(CC(C)C)C(=O)NC(Cc1c[nH]c2ccccc12)C(=O)NC(CC(C)C)C(=O)NC(Cc1c[nH]c2ccccc12)C(=O)NC(CC(C)C)C(=O)NC(Cc1c[nH]c2ccccc12)C(=O)NCCO)C(C)C)C(C)C)C(C)C` (stereo unspecified), the EC50 is 0.97 µM.

For the molecule `COc1ccc(/C=C/C(=O)Nc2ccccc2C(=O)O)cc1OC`, the EC50 was > 28 µM (inactive).

For the molecule `CCC[C@@H]1NC(=O)[C@@H]2C[C@H](NCc3cc(C)ccc3F)CN2C1=O`, the EC50 was > 28 µM (inactive).

In the case of `O=C(Nc1ccc(Br)cn1)c1ccc(N2CCCCC2)c([N+](=O)[O-])c1`, the EC50 was > 28 µM (inactive).

In the case of `O=C(Cc1cn(-c2ccc(Cl)nn2)c2ccccc12)NCCN1CCOCC1`, the EC50 is > 28.1 µM (inactive).

In the case of `Cn1c2c(c(=O)n(C)c1=O)C(c1cccc(F)c1)C1=C(CC(C)(C)CC1=O)N2` (stereo unspecified), the EC50 is > 27.8 µM (inactive).

Consider `Cc1ccc2c(c1)CN(CCC(=O)NCCCn1nnc3ccccc31)CC(C)O2` (stereo unspecified), for which the EC50 is > 28 µM (inactive).

`CC(=O)Nc1ccc(NC(=O)c2ccc3nc(Nc4ccccn4)sc3c2)cc1`: the EC50 is > 28 µM (inactive).

Turning to `C/C=C/C(=O)N(CC)c1ccccc1C`, the EC50 was > 28.9 µM (inactive).

As to `CN1CCN(c2ccc(-c3ccc(C(=O)NCCOc4ccccc4)s3)cc2)CC1`, the EC50 was > 27.7 µM (inactive).

In the case of `Fc1ccc(-c2cnc(N3CCC4(CC3)OCCO4)nc2)cc1`, the EC50 was > 28 µM (inactive).

As for `O=C(COc1ccc(C(=O)NCCc2ccccc2)cc1)Nc1ccccc1F`, the EC50 was > 28 µM (inactive).

Consider `Cc1cnc(C)c(NC2CCCCNC2=O)n1` (stereo unspecified), for which the EC50 was > 28 µM (inactive).

For the molecule `Cc1cc(-n2c(SCC(=O)NCc3ccco3)nc3n[nH]c(C)c3c2=N)ccc1Cl`, the EC50 is > 24.4 µM (inactive).

In the case of `COc1ccc(/C=C/C(=O)Nc2ccccc2F)cc1`, the EC50 is > 30.5 µM (inactive).

In the case of `CCCOc1ccc(NC(=O)CC2C(=O)N(c3ccc(Cl)cc3)C(=S)N2Cc2ccncc2)cc1` (stereo unspecified), the EC50 is > 23.5 µM (inactive).

As for `COc1ccc(-n2nc3c(c2NC(=O)CCC2CCCC2)CS(=O)(=O)C3)cc1`, the EC50 is > 28.2 µM (inactive).

As to `CC(NC(=O)c1ccco1)c1nnc2n1CCN(Cc1cccc(F)c1)CC2` (stereo unspecified), the EC50 is > 28 µM (inactive).

`CCN1CCN(Cc2ccc(NC(=O)Nc3ccccc3C)cc2)CC1`: the EC50 was > 28 µM (inactive).

As for `N=c1sc2c(n1CC(=O)c1ccccc1)CCCC2`, the EC50 was > 27 µM (inactive).

As to `CCn1ccnc1CN1CCN(Cc2ccc(F)cc2)C(CCO)C1` (stereo unspecified), the EC50 was > 28 µM (inactive).

On to `CCn1c(/C=C/C=C2\N(C)c3ccccc3C2(C)C)[n+](Cc2ccccc2)c2ccccc21`, for which the EC50 is 2.75 µM.

`COCCn1c(C)cc(C(=O)COC(=O)c2cccc(O)c2)c1C`: the EC50 was > 30.4 µM (inactive).

In the case of `O=C(O)c1cccc(NC(=O)c2ccc(Br)o2)c1`, the EC50 is > 28 µM (inactive).

Take `CSc1nc(-c2ccccc2)cn1-c1ccc(F)cc1`: the EC50 is > 35.5 µM (inactive).

Turning to `COC(=O)c1ccc(C2C(C#N)=C(N)Oc3n[nH]c(C45CC6CC(CC(C6)C4)C5)c32)cc1` (stereo unspecified), the EC50 entry was “inactive”.

In the case of `CC(C)NC(=O)c1cnc2scc(-c3ccccc3)n2c1=O`, the EC50 is > 28 µM (inactive).

As for `OC(c1cccnc1)c1ccc2c(c1)CN(Cc1cccc(Cl)c1)CCO2` (stereo unspecified), the EC50 is > 28 µM (inactive).

As for `CCOC(=O)c1ccc(NC(=O)CSc2cn(Cc3ccccc3Cl)c3ccccc23)cc1`, the EC50 is > 24.2 µM (inactive).
